# Test system: rhizogenic calli derived from leaf explants
# Experiment: adventitious shoot bud formation on rhizogenic calli derived from tea leaf explants
# Assay type: cell-based, Camellia sinensis
# Conditions: rhizogenic calli transferred to auxin free MS medium with 0.5 to 8 mg/l 6 Benzyl amino purine
# Description: iv) For adventitious shoot bud formation, the rhizogenic callus cultures obtained from step (iii) were transferred to (0.8%) agar solidified basal MS medium supplemented with 6 Benzyl amino purine (0.5 to 8.0 mg/l) and 3% sucrose.
# After 4-10 weeks, the rhizogenic callus was transferred to (0.8%) agar solidified basal MS medium supplemented with 3% sucrose and 0.5 to 8.0 mg/l 6 Benzyl amino purine for adventitious shoot bud formation.
smiles,measurement,value
c1ccc(CNc2ncnc3nc[nH]c23)cc1 [6 Benzyl amino purine],adventitious shoot bud development,more than 30%
same,explants responding (leaf explant response),~100%
